Values of other authors as cited in patent US20240261294A1, “METHOD FOR TREATING IDH INHIBITOR-RESISTANT SUBJECTS” (Eli Lilly and Company, priority 2021, published 2024).

System: IDH2-Q316E and IDH2-1319M
Conditions: preclinical studies; cited from earlier work

CC(C)(O)CNc1nc(Nc2ccnc(C(F)(F)F)c2)nc(-c2cccc(C(F)(F)F)n2)n1 [enasidenib]
binding and inhibition of the mutant enzymes: no longer able to bind and inhibit the mutant enzymes
